Assay results: publication PMC8746695, “Zinc-Chelating Compounds as Inhibitors of Human and Bacterial Zinc Metalloproteases” (Molecules, 2021)
Entries after “also recorded” stand apart in the source; their conditions may differ. Like-named read-outs stand apart in the source and are kept apart here.

Assays:
[1] = biological target: T1, human MT1-MMP/MMP-14 (catalytic domain) (Homo sapiens, UniProt P50281); experiment: Inhibition of MMP-14, fluorescence quenched peptide substrate McaPLGL(Dpa)AR-NH2; type: biochemical; details: for effect of 100 μM compound on MMP-14 activity: pre-incubation 0-45 min; for Ki: substrate McaPLGL(Dpa)AR-NH2 4 µM, 30 min pre-incubation at room temperature, calculated from IC50, read-out: Ki ± s.d. MMP-14
T1 construct: human MT1-MMP/MMP-14 (catalytic domain); purchased Calbiochem (San Diego, CA, USA)
Description: (§1) McaPLGL(Dpa)AR-NH2 was used as a substrate for MMP-9 and MMP-14, while McaRPPGFSAFK(Dnp)-OH was used as substrate for ALN, PLN and TLN. The reaction velocities/initial rates (v) were determined at 37 °C, at an excitation wavelength of 320 nm and an emission wavelength of 405 nm with a slit width of 10 nm using either a Perkin Elmer LS 50 Luminescence spectrometer and the FL WinLab Software Package (Perkin Elmer) or a Clario Star microplate reader (CLARIOstar® BMG LABTECH).
(§2) The test compounds were dissolved in 100% DMSO giving a concentration of 10 mM. A fixed substrate concentration of 4.0 µM in a total volume of 100 µL 0.1 M Hepes pH 7.5, 10 mM CaCl2, 0.005% Brij-35 and 1.0% DMSO, were used in all assays, except for ALN where the substrate concentration was 5.0 µM. The fixed enzyme concentrations were as follows; 0.05 nM MMP-9, 1.0 nM MMP-14, 1.4 nM ALN, 0.5 nM PLN and 0.21 nM TLN. Time-dependent inhibitory experiments without and with 100 μM of testing compounds were performed as follows. Compounds were either pre-incubated with the proteases for 15, 30 and 45 min at room temperature and the enzymatic reaction was started by adding the substrate, or not pre-incubated, i.e., the reaction was started by adding the protease to the mixture of substrate and compound. Control tests without compound present were performed in the same way. The reaction was followed for 30 min at 37 °C.
(§3) Enzymes with and without inhibitor were pre-incubated for 30 min at room temperature, and initial rate assays were performed as described above. Assays were performed using a Clario Star microplate reader (CLARIOstar® BMG LABTECH). The IC50 values were calculated in Graph Pad Prism 5 using Equation (1):(1) vi/v0=1/(1+10^(pIC50−pI)) where vi is the enzyme activity in the presence of inhibitor, v0 the activity in the absence of inhibitor, pI = −log [Inhibitor] in M and pIC50 = −log IC50 in M. All experiments were performed in at least triplicate.

[2] = cited from earlier work
pseudolysin (PLN) = biological target: T2, pseudolysin (PLN) (Pseudomonas aeruginosa, UniProt P14756); experiment: Inhibition of pseudolysin (PLN), substrate McaRPPGFSAFK(Dnp)-OH; type: biochemical; details: for effect of 100 μM compound on PLN activity: pre-incubation 0-45 min
T2 construct: purchased Calbiochem (San Diego, CA, USA)
T2 sequence (P14756 198-498): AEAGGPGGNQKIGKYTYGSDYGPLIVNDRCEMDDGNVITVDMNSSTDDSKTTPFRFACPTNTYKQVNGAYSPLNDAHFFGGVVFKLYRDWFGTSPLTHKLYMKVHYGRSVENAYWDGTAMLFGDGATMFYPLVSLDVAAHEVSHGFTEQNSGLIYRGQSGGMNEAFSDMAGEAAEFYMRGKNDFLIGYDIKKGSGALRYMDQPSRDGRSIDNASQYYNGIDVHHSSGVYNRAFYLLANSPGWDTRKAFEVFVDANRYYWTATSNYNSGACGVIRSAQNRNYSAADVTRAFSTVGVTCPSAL
Description: as §1, §2, §3

thermolysin (TLN) = biological target: T3, thermolysin (TLN) (Bacillus thermoproteolyticus, UniProt P00800); experiment: Inhibition of thermolysin (TLN), substrate McaRPPGFSAFK(Dnp)-OH; type: biochemical; details: for Ki: substrate McaRPPGFSAFK(Dnp)-OH 4 µM, 30 min pre-incubation at room temperature, calculated from IC50, read-out: Ki ± s.d. TLN; for effect of 100 μM compound on TLN activity: pre-incubation 0-45 min
T3 construct: purchased Calbiochem (San Diego, CA, USA)
T3 sequence (P00800 233-548): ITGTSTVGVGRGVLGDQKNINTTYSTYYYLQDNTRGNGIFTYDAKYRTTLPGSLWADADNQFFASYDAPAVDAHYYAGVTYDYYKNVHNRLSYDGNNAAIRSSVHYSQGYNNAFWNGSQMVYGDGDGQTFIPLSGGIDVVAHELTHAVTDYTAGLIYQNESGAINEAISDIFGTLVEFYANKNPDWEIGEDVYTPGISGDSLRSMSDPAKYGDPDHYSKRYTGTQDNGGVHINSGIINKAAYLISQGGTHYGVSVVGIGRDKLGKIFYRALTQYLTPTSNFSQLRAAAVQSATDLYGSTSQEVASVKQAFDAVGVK
Description: as §1, §2, §3

recombinant human MMP-9 = biological target: T4, recombinant human MMP-9 (Homo sapiens, UniProt P14780); experiment: Inhibition of MMP-9, fluorescence quenched peptide substrate McaPLGL(Dpa)AR-NH2; type: biochemical; details: for Ki: substrate McaPLGL(Dpa)AR-NH2 4 µM, 30 min pre-incubation at room temperature, calculated from IC50, read-out: Ki ± s.d. MMP-9; for effect of 100 μM compound on MMP-9 activity: pre-incubation 0-45 min
T4 construct: made in house; host or cells: Sf9 insect cells
T4 sequence (P14780 107-707 limits assumed): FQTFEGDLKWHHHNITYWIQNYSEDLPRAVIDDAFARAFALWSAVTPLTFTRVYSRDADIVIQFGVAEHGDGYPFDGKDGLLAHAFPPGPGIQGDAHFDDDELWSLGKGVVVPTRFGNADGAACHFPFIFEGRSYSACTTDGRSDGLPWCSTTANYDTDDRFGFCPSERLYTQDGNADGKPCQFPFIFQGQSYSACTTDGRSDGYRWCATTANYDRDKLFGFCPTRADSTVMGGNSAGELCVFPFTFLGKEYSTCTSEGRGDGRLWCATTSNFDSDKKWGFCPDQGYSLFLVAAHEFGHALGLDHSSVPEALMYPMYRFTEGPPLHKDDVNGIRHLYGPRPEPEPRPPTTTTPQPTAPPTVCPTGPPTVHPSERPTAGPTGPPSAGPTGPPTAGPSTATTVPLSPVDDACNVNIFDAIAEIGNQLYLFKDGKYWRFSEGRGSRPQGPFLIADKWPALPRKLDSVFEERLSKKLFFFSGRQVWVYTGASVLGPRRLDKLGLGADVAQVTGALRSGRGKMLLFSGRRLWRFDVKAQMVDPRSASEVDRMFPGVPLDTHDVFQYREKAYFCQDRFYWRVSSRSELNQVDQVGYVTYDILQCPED
Description: The expression and purification of recombinant human full-length proMMP-9 (rpMMP-9) from Sf9 insect cells were performed as described previously. The amount of proMMP-9 was estimated spectrophotometrically at 280 nm using ε280 nm = 114.36 mM^−1 cm^−1 [48]. Activation of the recombinant proMMP-9 was performed with APMA (auto-activation) as described previously. The amount of active MMP-9 was determined by active site titration using galardin also described previously.
as §1, §2, §3

aureolysin (ALN) = biological target: T5, aureolysin (ALN) (Staphylococcus aureus, UniProt P81177); experiment: Inhibition of aureolysin (ALN), substrate McaRPPGFSAFK(Dnp)-OH; type: biochemical; details: for effect of 100 μM compound on ALN activity: pre-incubation 0-45 min
T5 construct: purchased BioCentrum Ltd. (Kraków, Poland)
T5 sequence (P81177 209-509): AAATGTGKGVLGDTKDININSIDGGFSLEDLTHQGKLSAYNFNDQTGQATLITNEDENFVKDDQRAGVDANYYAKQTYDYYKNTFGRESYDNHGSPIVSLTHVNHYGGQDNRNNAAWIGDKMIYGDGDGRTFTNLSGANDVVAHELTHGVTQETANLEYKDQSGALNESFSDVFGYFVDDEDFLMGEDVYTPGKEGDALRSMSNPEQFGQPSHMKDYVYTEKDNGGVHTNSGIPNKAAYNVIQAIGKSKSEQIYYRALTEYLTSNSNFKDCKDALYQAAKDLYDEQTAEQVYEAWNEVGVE
Description: as §1, §2, §3

[3] = cited from earlier work; remark: listed apart in the source
NDM-1 = test system: NDM-1; parameters: method as in PMID 32179522; details: cited from earlier work
VIM-2 = test system: VIM-2; parameters: method as in PMID 32179522; details: cited from earlier work
Gram-negative pathogens = test system: Gram-negative pathogens; parameters: method as in PMID 32179522; details: cited from earlier work

c1ccc(CNCc2ccccn2)nc1 [DPA, di(2-pyridinemethyl)amine, reference compound]
effect of 100 μM compound on MMP-14 activity [1]: greatly enhanced | Kd ([2]; read-out: Kd (zinc-binder)): ~10 nM | Ki (pseudolysin (PLN)): 4 ± 1 µM | effect of 100 μM compound on PLN activity (pseudolysin (PLN)): Moderately strong inhibition

NCCc1ccc(NC(=O)CN(CCN(Cc2ccccn2)Cc2ccccn2)Cc2ccccn2)cc1 [Zn45]
Ki [1]: 2.5 ± 0.2 µM | Ki (thermolysin (TLN)): 7 ± 1 µM | Ki (pseudolysin (PLN)): 2.8 ± 0.9 µM

COC(=O)c1ccc(CN(Cc2ccccn2)Cc2ccccn2)nc1 [Zn145]
Ki [1]: 1.5 ± 0.1 µM | Ki (pseudolysin (PLN)): 12 ± 4 µM

O=C(O)c1ccc(CN(Cc2ccccn2)Cc2ccccn2)nc1 [Zn146]
Ki [1]: 3.8 ± 0.3 µM | Ki (recombinant human MMP-9): 21 ± 5 µM | Ki (pseudolysin (PLN)): 4 ± 1 µM | Ki (aureolysin (ALN)): 25 ± 2 µM

CN(C[C@H](O)[C@@H](O)[C@H](O)[C@H](O)CO)C(=O)c1ccc(CN(Cc2ccccn2)Cc2ccccn2)nc1 [Zn148]
acute toxicity ([3]; female BALB/c mice): limited in vivo toxicity | acute toxicity ([3]; mouse, in vivo): without acute toxicity | Ki [1]: 8.6 ± 0.7 µM | inactivation of MBL NDM-1 (NDM-1): irreversible inhibitor | Kd ([2]; read-out: Kd (zinc)): 0.001 nM | inactivation of MBL VIM-2 (VIM-2): irreversible inhibitor | effect of 100 μM compound on TLN activity (thermolysin (TLN)): no or only a limited effect | reversal of carbapenem resistance in Gram-negative pathogens (Gram-negative pathogens): reverse carbapenem resistance | IC50 (pseudolysin (PLN)): 6.07 ± 0.08 µM | Ki (pseudolysin (PLN)): 5 ± 2 µM | effect of 100 μM compound on ALN activity (aureolysin (ALN)): no or only a limited effect

CC(N)C(=O)NC(C)C(=O)NCCc1ccc(NC(=O)c2ccc(CN(Cc3ccccn3)Cc3ccccn3)nc2)cc1 (stereo not shown) [Zn155]
Ki [1]: 2.4 ± 0.2 µM | Ki (recombinant human MMP-9): 26 ± 6 µM | Ki (pseudolysin (PLN)): 6 ± 2 µM | Ki (aureolysin (ALN)): 60 ± 6 µM

O=C(NCCc1ccc(NC(=O)c2ccc(CN(Cc3ccccn3)Cc3ccccn3)nc2)cc1)c1ccc(CN(Cc2ccccn2)Cc2ccccn2)nc1 [Zn175]
Ki (recombinant human MMP-9): 6 ± 2 µM | Ki (pseudolysin (PLN)): 7 ± 2 µM | Ki (aureolysin (ALN)): 14 ± 1 µM

CC(N)C(=O)NC(C)C(=O)N1CCN(C(=O)c2ccc(CN(Cc3ccccn3)Cc3ccccn3)nc2)CC1 (stereo not shown) [Zn177]
Ki [1]: 11.2 ± 0.9 µM | Ki (recombinant human MMP-9): 56 ± 14 µM | Ki (pseudolysin (PLN)): 11 ± 4 µM

COC(=O)c1ccc(CN(Cc2cccs2)Cc2cccs2)s1 [Zn215]
effect of 100 μM compound on MMP-14 activity [1]: weak inhibition or lack of inhibition | effect of 100 μM compound on PLN activity (pseudolysin (PLN)): weak inhibition or lack of inhibition

COC(=O)c1ccc(CN(Cc2cccs2)Cc2cccs2)nc1 [Zn216]
effect of 100 μM compound on MMP-14 activity [1]: weak inhibition or lack of inhibition | effect of 100 μM compound on PLN activity (pseudolysin (PLN)): weak inhibition or lack of inhibition

CN(C[C@H](O)[C@@H](O)[C@H](O)[C@H](O)CO)C(=O)c1ccc(CN(Cc2ccccc2)Cc2ccccc2)nc1 [Zn222]
effect of 100 μM compound on MMP-14 activity [1]: weaker binding than Zn148; also recorded: binding was prevented | inactivation of MBL NDM-1 (NDM-1): did not inactivate | Kd ([2]; read-out: Kd (zinc)): 1000 nM | inactivation of MBL VIM-2 (VIM-2): did not inactivate | effect of 100 μM compound on TLN activity (thermolysin (TLN)): no effect | effect of 100 μM compound on MMP-9 activity (recombinant human MMP-9): weaker binding than Zn148 | reversal of carbapenem resistance in Gram-negative pathogens (Gram-negative pathogens): lacked the ability to reverse carbapenem resistance | effect of 100 μM compound on PLN activity (pseudolysin (PLN)): weaker binding than Zn148 | effect of 100 μM compound on ALN activity (aureolysin (ALN)): no effect

CN(C[C@H](O)[C@@H](O)[C@H](O)[C@H](O)CO)C(=O)c1ccc(CN(Cc2ccccc2)Cc2ccccn2)nc1 [Zn223]
effect of 100 μM compound on MMP-14 activity [1]: weaker binding than Zn148; also recorded: binding was prevented | inactivation of MBL NDM-1 (NDM-1): reduced capability to inactivate | Kd ([2]; read-out: Kd (zinc)): 100 nM | inactivation of MBL VIM-2 (VIM-2): reduced capability to inactivate | effect of 100 μM compound on TLN activity (thermolysin (TLN)): no effect | effect of 100 μM compound on MMP-9 activity (recombinant human MMP-9): weaker binding than Zn148 | reversal of carbapenem resistance in Gram-negative pathogens (Gram-negative pathogens): lacked the ability to reverse carbapenem resistance | effect of 100 μM compound on PLN activity (pseudolysin (PLN)): weaker binding than Zn148 | effect of 100 μM compound on ALN activity (aureolysin (ALN)): no effect

CC(=O)OC[C@@H](OC(C)=O)[C@@H](OC(C)=O)[C@H](OC(C)=O)[C@H](CN(C)C(=O)c1ccc(CN(Cc2ccccn2)Cc2ccccn2)nc1)OC(C)=O [Zn224]
Ki [1]: 4.5 ± 0.4 µM | Ki (pseudolysin (PLN)): 13 ± 4 µM

CCN(C[C@H](O)[C@@H](O)[C@H](O)[C@H](O)CO)C(=O)c1ccc(CN(Cc2ccccn2)Cc2ccccn2)nc1 [Zn225]
Ki [1]: 4.5 ± 0.4 µM | Ki (thermolysin (TLN)): 9 ± 2 µM | Ki (recombinant human MMP-9): 28 ± 7 µM | Ki (pseudolysin (PLN)): 5 ± 2 µM

O=C(NCc1ccc(CN(Cc2ccccn2)Cc2ccccn2)nc1)C1OC(O)C(O)C(O)C1O (stereo not shown) [Zn227]
Ki [1]: 4.8 ± 0.4 µM | Ki (thermolysin (TLN)): 11 ± 2 µM | Ki (recombinant human MMP-9): 77 ± 19 µM | Ki (pseudolysin (PLN)): 9 ± 3 µM

O=C(NC[C@H](O)[C@@H](O)[C@H](O)[C@H](O)CO)c1ccc(CN(Cc2ccccn2)Cc2ccccn2)nc1 [Zn230]
Ki [1]: 3.5 ± 0.3 µM | Ki (thermolysin (TLN)): 12 ± 2 µM | Ki (recombinant human MMP-9): 22 ± 6 µM | Ki (pseudolysin (PLN)): 1.1 ± 0.3 µM | Ki (aureolysin (ALN)): 20 ± 2 µM

O=C(O)c1ccc(CN(CCN(Cc2ccccn2)Cc2ccccn2)Cc2ccc(C(=O)O)cn2)nc1 [Zn239]
Ki [1]: 6.1 ± 0.5 µM | Ki (thermolysin (TLN)): 32 ± 5 µM | Ki (recombinant human MMP-9): 58 ± 14 µM | Ki (pseudolysin (PLN)): 5 ± 2 µM

COC(=O)Cc1ccc(NC(=O)c2ccc(CN(Cc3ccccn3)Cc3ccccn3)nc2)cc1 [Zn244]
Ki [1]: 4 ± 0.3 µM | Ki (recombinant human MMP-9): 22 ± 6 µM | IC50 (pseudolysin (PLN)): 4.46 ± 0.05 µM | Ki (pseudolysin (PLN)): 4 ± 1 µM
